# Read-outs that look alike come from different tables or passages of the source.
# Experiments:
# [1] = system: MCC13 cells (VN-MCC); experiment: qHTS cell viability (CellTiter-Glo, 72 h; primary and follow-up small molecule screen); assay type: cell-based, human
# [2] = system: VN-MCC cell lines (MCC13, MCC26, UISO); experiment: qHTS cell viability, VN-MCC cell lines as a group (mean AUC, VN.MCC.avg); assay type: cell-based, human
# [3] = system: UISO cells (VN-MCC); experiment: qHTS cell viability (CellTiter-Glo, 72 h; primary and follow-up small molecule screen); assay type: cell-based, human
# [4] = system: WAGA cells (VP-MCC); experiment: as above; assay type: cell-based, human
# [5] = system: VP-MCC cell lines (WAGA, MKL-1, MKL-2); experiment: qHTS cell viability, VP-MCC cell lines as a group (mean AUC, VP.MCC.avg); assay type: cell-based, human
# [6] = system: CRL-7250 cells; experiment: qHTS cell viability (CellTiter-Glo, 72 h; primary screen), control cell line; assay type: cell-based
# [7] = system: HACAT cells; experiment: as above; assay type: cell-based, human
# [8] = system: MCC26 cells (VN-MCC); experiment: qHTS cell viability (CellTiter-Glo, 72 h; primary and follow-up small molecule screen); assay type: cell-based, human
# [9] = system: NIH-3T3 cells; experiment: qHTS cell viability (CellTiter-Glo, 72 h; primary screen), control cell line; assay type: cell-based, mouse
# [10] = system: MCC cell lines (WAGA, MKL-1, MKL-2, MCC13, MCC26, UISO); experiment: qHTS cell viability, all six MCC cell lines as a group (mean AUC, MCC.avg); assay type: cell-based, human
# [11] = system: control cell lines (HACAT, HEK293T, CRL-7250, NIH-3T3); experiment: qHTS cell viability, control cell lines as a group (mean AUC, Control.avg); assay type: cell-based
# [12] = system: six MCC cell lines and four control cell lines; experiment: qHTS cell viability, all 10 cell lines screened; assay type: cell-based
# [13] = system: MKL-2 cells (VP-MCC); experiment: qHTS cell viability (CellTiter-Glo, 72 h; primary and follow-up small molecule screen); assay type: cell-based, human
# [14] = system: HEK293T cells; experiment: qHTS cell viability (CellTiter-Glo, 72 h; primary screen), control cell line; assay type: cell-based, human
# [15] = system: MKL-1 cells (VP-MCC); experiment: qHTS cell viability (CellTiter-Glo, 72 h; primary and follow-up small molecule screen); assay type: cell-based, human
# [16] = MIPE library, 11-point DRC, sheet S2E
# [17] = MIPE library, Control AUC minus VN-MCC AUC (therapeutic window), sheet S2E
# [18] = MIPE library, mean AUC of VN-MCC cell lines, sheet S2E
# [19] = MIPE library, Control AUC minus VP-MCC AUC (therapeutic window), sheet S2E
# [20] = MIPE library, mean AUC of VP-MCC cell lines, sheet S2E
# [21] = MIPE library, 11-point DRC, control cell line, sheet S2E
# [22] = MIPE library, mean AUC of six MCC cell lines, sheet S2E
# [23] = MIPE library, mean AUC of control cell lines, sheet S2E
# [24] = MIPE library, Control AUC minus MCC AUC (therapeutic window), sheet S2E
compound,measurement,setting,value
CCC(=O)OC1(c2ccccc2)CCN(C)CC1.Cl,MCC13_AUC,[1],464.627
same,Control-VN-MCC,[2],13.9158
same,VN-MCC_Avg_AUC,[2],457.741
same,UISO_AUC,[3],451.795
same,WAGA_AUC,[4],438.281
same,Control-VP-MCC,[5],58.056
same,VP-MCC_Avg_AUC,[5],413.6
same,CRL7250_AUC,[6],443.177
same,HACAT_AUC,[7],483.91
same,MCC26_AUC,[8],456.799
same,NIH3T3_AUC,[9],479.714
same,MCC_Avg_AUC,[10],435.67
same,Control_Avg_AUC,[11],471.656
same,Control-MCC,[12],35.9859
same,MKL2_AUC,[13],404.215
same,HEK293T_AUC,[14],479.823
same,MKL1_AUC,[15],398.305
CNC(C)Cc1ccc2c(c1)OCO2.Cl (centres unmarked),MCC13_AUC,[1],451.345
same,Control-VN-MCC,[2],53.7607
same,VN-MCC_Avg_AUC,[2],436.031
same,UISO_AUC,[3],441.906
same,WAGA_AUC,[4],422.784
same,Control-VP-MCC,[5],54.4283
same,VP-MCC_Avg_AUC,[5],435.364
same,CRL7250_AUC,[6],491.585
same,HACAT_AUC,[7],490.316
same,MCC26_AUC,[8],414.843
same,NIH3T3_AUC,[9],493.81
same,MCC_Avg_AUC,[10],435.698
same,Control_Avg_AUC,[11],489.792
same,Control-MCC,[12],54.0945
same,MKL2_AUC,[13],446.935
same,HEK293T_AUC,[14],483.458
same,MKL1_AUC,[15],436.372
COc1ccc(C(=O)CC(=O)c2ccc(C(C)(C)C)cc2)cc1,MCC13_AUC,[1]; [16],495.434
same,MCC13_AUC,"[1]; area under the dose-response curve, MCC13 cells, AUC<450 = reduced viability",482.294
same,Control-VN-MCC,[2]; [17],-9.242
same,VN-MCC_Avg_AUC,[2]; [18],469.944
same,UISO_AUC,[3]; [16],429.371
same,UISO_AUC,"[3]; area under the dose-response curve, UISO cells, AUC<450 = reduced viability",482.124
same,WAGA_AUC,[4]; [16],305.979
same,WAGA_AUC,"[4]; area under the dose-response curve, WAGA cells, AUC<450 = reduced viability",381.481
same,Control-VP-MCC,[5]; [19],140.718
same,VP-MCC_Avg_AUC,[5]; [20],319.984
same,CRL7250_AUC,[6]; [21],416.272
same,CRL7250_AUC,"[6]; area under the dose-response curve, CRL7250 control cells, AUC<450 = reduced viability",453.419
same,HACAT_AUC,[7]; [21],476.58
same,HACAT_AUC,"[7]; area under the dose-response curve, HACAT control cells, AUC<450 = reduced viability",467.786
same,MCC26_AUC,[8]; [16],485.026
same,MCC26_AUC,"[8]; area under the dose-response curve, MCC26 cells; AUC<450 = reduced viability",481.864
same,NIH3T3_AUC,[9]; [21],477.589
same,NIH3T3_AUC,"[9]; area under the dose-response curve, NIH3T3 control cells, AUC<450 = reduced viability",482.946
same,MCC_Avg_AUC,[10]; [22],394.964
same,Control_Avg_AUC,[11]; [23],460.702
same,Control-MCC,[12]; [24],65.7381
same,MKL2_AUC,[13]; [16],314.76
same,MKL2_AUC,"[13]; area under the dose-response curve, MKL-2 cells, AUC<450 = reduced viability",386.921
same,HEK293T_AUC,[14]; [21],472.366
same,HEK293T_AUC,"[14]; area under the dose-response curve, HEK293T control cells; AUC<450 = reduced viability",465.048
same,MKL1_AUC,[15]; [16],339.212
same,MKL1_AUC,"[15]; area under the dose-response curve, MKL-1 cells, AUC<450 = reduced viability",411.648
COc1cc(C[C@@H](C)N)c(OC)cc1C.Cl,MCC13_AUC,[1],469.394
same,Control-VN-MCC,[2],-98.1417
same,VN-MCC_Avg_AUC,[2],433.35
same,UISO_AUC,[3],418.828
same,WAGA_AUC,[4],120.519
same,Control-VP-MCC,[5],255.371
same,VP-MCC_Avg_AUC,[5],79.8375
same,CRL7250_AUC,[6],239.588
same,HACAT_AUC,[7],438.262
same,MCC26_AUC,[8],411.829
same,NIH3T3_AUC,[9],358.481
same,MCC_Avg_AUC,[10],256.594
same,Control_Avg_AUC,[11],335.209
same,Control-MCC,[12],78.6147
same,MKL2_AUC,[13],72.1855
same,HEK293T_AUC,[14],304.503
same,MKL1_AUC,[15],46.808
C#C[C@]1(OC(C)=O)CC[C@H]2[C@@H]3CCC4=CC(=NO)CC[C@@H]4[C@H]3CC[C@@]21CC (mixture of isomers) [Norgestimate],MCC13_AUC,"[1]; NPC library, qHTS dose-response AUC, MCC13",443.22
same,Control-VN-MCC,[2]; Control AUC minus VN-MCC AUC,41.6867
same,VN-MCC_Avg_AUC,"[2]; NPC library, mean AUC of VN-MCC cell lines",418.896
same,Control-VN-MCC,"[2]; NPC library, therapeutic window: Control avg AUC minus VN-MCC avg AUC",41.6867
same,UISO_AUC,"[3]; NPC library, qHTS dose-response AUC, UISO",417.397
same,WAGA_AUC,"[4]; NPC library, qHTS dose-response AUC, WAGA",384.002
same,Control-VP-MCC,[5]; Control AUC minus VP-MCC AUC,61.2604
same,VP-MCC_Avg_AUC,"[5]; NPC library, mean AUC of VP-MCC cell lines",399.323
same,Control-VP-MCC,"[5]; NPC library, therapeutic window: Control avg AUC minus VP-MCC avg AUC",61.2604
same,CRL7250_AUC,"[6]; NPC library, qHTS dose-response AUC, CRL7250 control",491.565
same,HACAT_AUC,"[7]; NPC library, qHTS dose-response AUC, HACAT control",469.318
same,MCC26_AUC,"[8]; NPC library, qHTS dose-response AUC, MCC26",396.072
same,MCC26_AUC,"[8]; NPC library; qHTS dose-response AUC, MCC26",396.073
same,NIH3T3_AUC,"[9]; NPC library, qHTS dose-response AUC, NIH3T3 control",462.903
same,MCC_Avg_AUC,"[10]; NPC library, mean AUC of all 6 MCC cell lines",409.11
same,MCC_Avg_AUC,"[10]; NPC library, mean AUC of six MCC cell lines",409.109
same,Control_Avg_AUC,"[11]; NPC library, mean AUC of control cell lines",460.583
same,Control-MCC,"[12]; NPC library, therapeutic window: Control avg AUC minus MCC avg AUC",51.4735
same,MKL2_AUC,"[13]; NPC library, qHTS dose-response AUC, MKL2",415.787
same,HEK293T_AUC,"[14]; NPC library, qHTS dose-response AUC, HEK293T control",418.546
same,HEK293T_AUC,"[14]; NPC library; qHTS dose-response AUC, HEK293T control",418.545
same,MKL1_AUC,"[15]; NPC library, qHTS dose-response AUC, MKL1",398.179
C=C1/C(=C\C=C2/CCC[C@]3(C)[C@@H]([C@H](C)/C=C/[C@H](C)C(C)C)CC[C@@H]23)C[C@@H](O)C[C@@H]1O [1-alpha-Hydroxyergocalciferol],MCC13_AUC,[1]; [16],466.906
same,Control-VN-MCC,[2]; [17],0.7959
same,VN-MCC_Avg_AUC,[2]; [18],427.411
same,UISO_AUC,[3]; [16],386.134
same,WAGA_AUC,[4]; [16],235.191
same,Control-VP-MCC,[5]; [19],133.527
same,VP-MCC_Avg_AUC,[5]; [20],294.68
same,CRL7250_AUC,[6]; [21],418.5
same,HACAT_AUC,[7]; [21],470.948
same,MCC26_AUC,[8]; [16],429.194
same,NIH3T3_AUC,[9]; [21],349.858
same,MCC_Avg_AUC,[10]; [22],361.046
same,Control_Avg_AUC,[11]; [23],428.207
same,Control-MCC,[12]; [24],67.1615
same,MKL2_AUC,[13]; [16],310.498
same,HEK293T_AUC,[14]; [21],473.524
same,MKL1_AUC,[15]; [16],338.352
CC1(C)CCC(c2ccc(Cl)cc2)=C(CN2CCN(c3ccc(C(=O)N[S+](=O)([O-])c4ccc(N[C@H](CCN5CCOCC5)CSc5ccccc5)c([S+](=O)([O-])C(F)(F)F)c4)cc3)CC2)C1 [ABT-263 (Navitoclax)],MCC13_AUC,[1]; [16],470.158
same,Control-VN-MCC,[2]; [17],-31.9962
same,VN-MCC_Avg_AUC,[2]; [18],493.32
same,UISO_AUC,[3]; [16],533.391
same,WAGA_AUC,[4]; [16],250.192
same,Control-VP-MCC,[5]; [19],189.019
same,VP-MCC_Avg_AUC,[5]; [20],272.305
same,CRL7250_AUC,[6]; [21],467.721
same,HACAT_AUC,[7]; [21],444.442
same,MCC26_AUC,[8]; [16],476.41
same,NIH3T3_AUC,[9]; [21],462.454
same,MCC_Avg_AUC,[10]; [22],382.812
same,Control_Avg_AUC,[11]; [23],461.324
same,Control-MCC,[12]; [24],78.5112
same,MKL2_AUC,[13]; [16],277.677
same,HEK293T_AUC,[14]; [21],470.677
same,MKL1_AUC,[15]; [16],289.046
